Marks after values point to notes of the source that are not given here.
Experiments:
SrtA = target: T1, SrtA (Staphylococcus aureus, UniProt Q2FV99); experiment: Biolayer interferometry assay; assay type: binding, S. aureus
T1 construct: The gene encoding SrtA (lacking the N-terminal transmembrane domain (N1–59)); made in house
Description: The kinetics of the binding of Sal A to SrtA were determined by a biolayer interferometry (BLI) assay using the Octet RED96 system (ForteBio, Inc., Menlo Park, CA) as described previously. Ni-NTA sensors were used to bind the His-tag SrtA protein. The assay buffer used was PBS containing 0.1% bovine serum albumin and 0.02% Tween-20, pH 6.5. Before the assay was performed, the Ni-NTA sensors were pre-wetted in assay buffer for 10 min, and then the Ni-NTA sensors were flushed with buffer for 60 s to generate the baseline. SrtA was immobilized on the surface of the sensor tip by incubating it in […] protein solution for 3600 s. The excess protein was removed by washing the sensor with buffer for 300 s. Subsequently, the sensor was exposed to a cycle of 60 s for the baseline step, 200 s for the association step and 100 s for the dissociation step in different concentrations of Sal A solution (250, 125, 62.5, 31.25 and 15.625 μM). The binding of the sensor to protein without the loading of Sal A served as a control. The data were processed using the double reference subtraction method in Forte Bio analysis software (v6.4).

WT-SrtA = system: T2, WT-SrtA; experiment: Fluorescence quenching assay, WT-SrtA; assay type: binding, S. aureus
T2 construct: The gene encoding SrtA (lacking the N-terminal transmembrane domain (N1–59)); 6xHis (N); made in house
Description: (§1) The fluorescence quenching assay was performed as previously described. Briefly, purified SrtA and mutant protein were diluted to 500 ng/ml with PBS. A total of 2.5 ml diluted protein solution was mixed with Sal A at different concentrations ranging from 0 to 4.5 μg. After incubation for 10 min, the fluorescence spectra of the mixed solutions were measured using a fluorescence spectrophotometer (RF5301, Japan). For the fluorescence measurement, the excitation and emission slits were set at 5.0 nm, the excitation wavelength was set at 280 nm, and fluorescence emission spectra in the range of 290–500 nm were scanned; the fluorescence intensity at 340 nm was recorded. All assays were performed in triplicate.

A92L-SrtA = system: T3, A92L-SrtA; experiment: Fluorescence quenching assay, A92L-SrtA; assay type: binding, S. aureus; settings: fluorescence spectroscopy quenching
T3 construct: The gene encoding SrtA (lacking the N-terminal transmembrane domain (N1–59)); 6xHis (N); made in house
Description: as §1

A104L-SrtA = system: T4, A104L-SrtA; experiment: Fluorescence quenching assay, A104L-SrtA; assay type: binding, S. aureus; settings: fluorescence spectroscopy quenching
T4 construct: The gene encoding SrtA (lacking the N-terminal transmembrane domain (N1–59)); 6xHis (N); made in house
Description: as §1

I182A-SrtA = system: T5, I182A-SrtA; experiment: Fluorescence quenching assay, I182A-SrtA; assay type: binding, S. aureus; settings: fluorescence spectroscopy quenching
T5 construct: The gene encoding SrtA (lacking the N-terminal transmembrane domain (N1–59)); 6xHis (N); made in house
Description: as §1

R197A-SrtA = system: T6, R197A-SrtA; experiment: Fluorescence quenching assay, R197A-SrtA; assay type: binding, S. aureus; settings: fluorescence spectroscopy quenching
T6 construct: The gene encoding SrtA (lacking the N-terminal transmembrane domain (N1–59)); 6xHis (N); made in house
Description: as §1

S. aureus USA300 [1] = experiment: Pneumonia model, survival; assay type: in vivo, C57BL/6J mice; settings: mice, 2 × 10^9 CFU i.n.; s.c. 100 mg/kg Sal A and/or 75 mg/kg latamoxef every 12 h, 96 h; PBS control 10%
Description: The animal experiments were performed using 6- to 8-week-old female C57BL/6J mice obtained from the Experimental Animal Center of Jilin University and conducted according to the guidelines of the Animal Care and Use Committee of Jilin University. The mouse S. aureus pneumonia model was generated as described previously. Briefly, the mice were anaesthetized with ether and inoculated with 30 μl bacterial resuspension via the left nare. The mice were then held upright to allow the bacteria to be inhaled into the lungs. For the survival assessment, groups of 10 mice were challenged with 2 × 10^9 CFU S. aureus. One hour after intranasal inoculation, the mice were subcutaneously injected with 100 mg/kg of Sal A, 75 mg/kg of latamoxef or 100 mg/kg of Sal A plus 75 mg/kg of latamoxef at 12 h intervals, and survival was assessed for 96 h. For the bacterial load, histopathological, and bronchoalveolar lavage fluid (BALF) experiments, mice were inoculated with 1 × 10^9 CFU S. aureus. The mice were then given a subcutaneous injection of 100 mg/kg Sal A, 75 mg/kg latamoxef or a combination of 100 mg/kg Sal A and 75 mg/kg every 12 h. After 24 h, the left lung of each anaesthetized mouse was aseptically excised and homogenized, and the CFU was determined by serial dilutions. […]

S. aureus USA300 [2] = experiment: Pneumonia model, bacterial load and histopathology of the lungs; assay type: in vivo, C57BL/6J mice; settings: mice, 1 × 10^9 CFU i.n., 24 h
Description: The animal experiments were performed using 6- to 8-week-old female C57BL/6J mice obtained from the Experimental Animal Center of Jilin University and conducted according to the guidelines of the Animal Care and Use Committee of Jilin University. The mouse S. aureus pneumonia model was generated as described previously. Briefly, the mice were anaesthetized with ether and inoculated with 30 μl bacterial resuspension via the left nare. The mice were then held upright to allow the bacteria to be inhaled into the lungs. For the survival assessment, groups of 10 mice were challenged with 2 × 10^9 CFU S. aureus. One hour after intranasal inoculation, the mice were subcutaneously injected with 100 mg/kg of Sal A, 75 mg/kg of latamoxef or 100 mg/kg of Sal A plus 75 mg/kg of latamoxef at 12 h intervals, and survival was assessed for 96 h. For the bacterial load, histopathological, and bronchoalveolar lavage fluid (BALF) experiments, mice were inoculated with 1 × 10^9 CFU S. aureus. The mice were then given a subcutaneous injection of 100 mg/kg Sal A, 75 mg/kg latamoxef or a combination of 100 mg/kg Sal A and 75 mg/kg every 12 h. After 24 h, the left lung of each anaesthetized mouse was aseptically excised and homogenized, and the CFU was determined by serial dilutions. The right lungs from each group of mice were excised for histopathological analysis, and the samples were fixed in 10% formalin and stained with haematoxylin and eosin (H&E).

TNF-α, IL-6, IL-1β = experiment: Pneumonia model, cytokines in BALF (ELISA); assay type: in vivo, C57BL/6J mice; settings: mice, 1 × 10^9 CFU i.n.; 100 mg/kg s.c.; 24 h after infection
Description: For the determinations of the levels of TNF-α, IL-6, IL-1β, 24 h after inoculation with bacteria, the lungs of anaesthetized mice were lavaged with a tracheal cannula according to a procedure described previously. The lavage samples were centrifuged for 10 min at 500 × g and 4°C. The supernatant was collected, and the amounts of cytokines were quantified using commercial enzyme-linked immunosorbent assay (ELISA) kits (eBioscience, San Diego, CA) according to the manufacturer’s protocols. All animal experiments were replicated at least twice, with essentially identical results.

T1 sequence (Q2FV99 60-206): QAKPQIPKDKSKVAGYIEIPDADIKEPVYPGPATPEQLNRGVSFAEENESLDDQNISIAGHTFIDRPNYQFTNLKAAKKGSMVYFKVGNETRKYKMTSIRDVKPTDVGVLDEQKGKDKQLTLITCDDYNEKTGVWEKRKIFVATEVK

O=C(/C=C/c1ccc(O)c(O)c1/C=C/c1ccc(O)c(O)c1)O[C@H](Cc1ccc(O)c(O)c1)C(=O)O [Sal A, (2R)-3-(3,4-Dihydroxyphenyl)-2-[(E)-3-[2-[(E)-2-(3,4-dihydroxyphenyl)ethenyl]-3,4-dihydroxyphenyl]prop-2-enoyl]oxypropanoic acid]
koff (SrtA): 0.0138 s⁻¹ | kon (SrtA): 582 M⁻¹ s⁻¹ | KA (WT-SrtA; fluorescence quenching, WT SrtA): 58000 L/mol | KA (WT-SrtA; fluorescence spectroscopy quenching, WT-SrtA): 5.8 (1 × 10^4) l/mol | KA (A92L-SrtA): 3.78 (1 × 10^4) l/mol | KA (A104L-SrtA): 2.62 (1 × 10^4) l/mol | KA (I182A-SrtA): 1.03 (1 × 10^4) l/mol | KA (R197A-SrtA): 2.22 (1 × 10^4) l/mol | survival rate (S. aureus USA300 [1]): 80% | viable MRSA loads in the lungs in comparison with the control (S. aureus USA300 [2]; s.c. 100 mg/kg Sal A and/or 75 mg/kg latamoxef every 12 h): significantly decreased | pulmonary inflammation (histopathology of the lungs) (S. aureus USA300 [2]; s.c. 100 mg/kg Sal A and/or 75 mg/kg latamoxef, H&E): alleviated | levels of TNF-α, IL-6, and IL-1β in the BALF compared with the control group (TNF-α, IL-6, IL-1β): significantly downregulated
